We go through nine compounds from US20120100990A1, “4 -AMINOPICOLINATES AND THEIR USE AS HERBICIDES” (SYNGENTA CROP PROTECTION LLC, priority 2009, published 2012).

Assay type in all cases: in vivo
The subject of assay [1] is Alopecurus myosuroides (ALOMY). Nature of the assay: Pre-emergence biological efficacy, glasshouse pot test. The following applies: 312 h, 1,000 g/ha, evaluated after 13 days, 100=total damage, 0=no damage, read-out: Percentage damage caused to weed species, pre-emergence, ALOMY. The procedure, abridged: (§1)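 Visual 0–100 injury scale read 13 days post-spray. Dose 1000 or 250 g/ha, applied to soil one day after sowing, before emergence.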

Assay [2] deals with Amaranthus retroflexus (AMARE). The assay is described as above. To be noted: 312 h, 1,000 g/ha, evaluated after 13 days, 100=total damage, 0=no damage, read-out: Percentage damage caused to weed species, pre-emergence, AMARE. The procedure, abridged:
as §1

Assay [3] deals with Echinochloa crus-galli (ECHCG). The assay is described as above. To be noted: 312 h, 1,000 g/ha, evaluated after 13 days, 100=total damage, 0=no damage, read-out: Percentage damage caused to weed species, pre-emergence, ECHCG. The procedure, abridged: as §1
Assay [4] has as its system Ipomea hederaceae (IPOHE). Described as above. To be noted: Ipomoea hederacea, 312 h, 1,000 g/ha, evaluated after 13 days, 100=total damage, 0=no damage, read-out: Percentage damage caused to weed species, pre-emergence, IPOHE. An outline of the steps: as §1
Assay [5] relates to Setaria faberi (SETFA). The description is as above. The following applies: 312 h, 1,000 g/ha, evaluated after 13 days, 100=total damage, 0=no damage, read-out: Percentage damage caused to weed species, pre-emergence, SETFA. An outline of the steps:
as §1

For assay [6], the system named is Solanum nigrum (SOLNI). The assay is described as above. To be noted: 312 h, 1,000 g/ha, evaluated after 13 days, 100=total damage, 0=no damage, read-out: Percentage damage caused to weed species, pre-emergence, SOLNI. The procedure, abridged:
as §1

Assay [7] concerns Alopecurus myosuroides (ALOMY). Nature of the assay: Post-emergence biological efficacy, glasshouse pot test. To be noted: 312 h, 1,000 g/ha, evaluated after 13 days, 100=total damage, 0=no damage, read-out: Percentage damage caused to weed species, post-emergence, ALOMY. An outline of the steps: (§2)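 Seeds are sown in pots of standard soil and grown 8 days under controlled glasshouse conditions (24/16 °C, 14 h photoperiod, 65% humidity). Seedlings are then sprayed at 1000 or 250 g/ha, kept under the same conditions with twice-daily watering, and assessed on a 0–100 damage scale after 13 days.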

The subject of assay [8] is Amaranthus retroflexus (AMARE). The description is as above. The following applies: 312 h, 1,000 g/ha, evaluated after 13 days, 100=total damage, 0=no damage, read-out: Percentage damage caused to weed species, post-emergence, AMARE. An outline of the steps: as §2
Assay [9] concerns Echinochloa crus-galli (ECHCG). The description is as above. To be noted: 312 h, 1,000 g/ha, evaluated after 13 days, 100=total damage, 0=no damage, read-out: Percentage damage caused to weed species, post-emergence, ECHCG. The procedure, abridged: as §2
The subject of assay [10] is Ipomea hederaceae (IPOHE). The description is as above. The following applies: Ipomoea hederacea, 312 h, 1,000 g/ha, evaluated after 13 days, 100=total damage, 0=no damage, read-out: Percentage damage caused to weed species, post-emergence, IPOHE. An outline of the steps: as §2
Assay [11] has as its system Setaria faberi (SETFA). The assay is described as above. To be noted: 312 h, 1,000 g/ha, evaluated after 13 days, 100=total damage, 0=no damage, read-out: Percentage damage caused to weed species, post-emergence, SETFA. The procedure, abridged: as §2
Assay [12] has as its system Solanum nigrum (SOLNI). The assay is described as above. The following applies: 312 h, 1,000 g/ha, evaluated after 13 days, 100=total damage, 0=no damage, read-out: Percentage damage caused to weed species, post-emergence, SOLNI. The procedure, abridged:
as §2

For `COC(=O)c1nc(Cl)cc(NCc2ccco2)c1C1CC1` [Compound 26-7, 6-chloro-3-cyclopropyl-4-[(furan-2-ylmethyl)-amino]-pyridine-2-carboxylic acid methyl ester], the pest or weed control at 1000 g/ha in assay [1] amounted to 10%; in [2], 60%; in [3], 10%; in assay [4], 70%; in assay [5], 10%; in [6], 80%. Besides, the pest or weed control at 1000 g/ha in assay [7] stood at 0%; in [8] it was 40%; in assay [9], 0%; in assay [10] it was 30%; in [11] it was 0%; in [12], 70%.

With `COC(=O)c1nc(Cl)cc(N(CCO)Cc2ccco2)c1Cl` [Compound 66-2, 3,6-Dichloro-4-[N-(furan-2-ylmethyl)-N-(2-hydroxyethyl)-amino]-pyridine-2-carboxylic acid methyl ester], the pest or weed control at 1000 g/ha in assay [1] was determined as 80%; in [2], 100%; in [3] it was 50%; in [4], 100%; in assay [5], 70%; in assay [6], 100%. Moreover, the pest or weed control at 1000 g/ha is 20% in assay [7]; 100% in [8]; 20% in [9]; 60% in assay [10]; 0% in assay [11]; 80% in assay [12].

As to `C=Cc1c(NCC2CCCCC2)cc(Cl)nc1C(=O)OC` [Compound 67-12, 6-Chloro-4-cyclohexylmeth-ylamino-3-ethenyl-pyridine-2-carboxylic acid methyl ester], the pest or weed control at 1000 g/ha in assay [1] is 10%; in assay [2], 100%; in [3] it was 10%; in assay [4] it was 60%; in assay [5], 0%; in assay [6], 80%. Further, the pest or weed control at 1000 g/ha in assay [7] came to 10%; in assay [8] it was 90%; in assay [9], 20%; in assay [10], 60%; in [11], 20%; in assay [12], 80%.

Turning to `C=Cc1c(NCc2ccccc2F)cc(Cl)nc1C(=O)OC` [Compound 6-12, 6-Chloro-3-ethenyl-4-[(2-fluorophenyl-methyl)-amino]-pyridine-2-carboxylic acid methyl ester], the pest or weed control at 1000 g/ha in [1] amounted to 40%; in assay [2], 100%; in assay [3] it was 30%; in assay [4], 60%; in assay [5], 40%; in assay [6], 100%. The pest or weed control at 1000 g/ha in [7] was 20%; in [8], 100%; in [9], 20%; in assay [10], 70%; in [11], 80%; in assay [12], 90%.

For `CCO/C=C\c1c(NCc2ccco2)cc(-c2ccc(Cl)c(OC)c2F)nc1C(=O)OC` [Compound 26-463, (Z)-6-(4-chloro-2-fluoro-3-methoxy-phenyl)-3-(2-ethoxyethenyl)-4-[(furan-2-ylmethyl)-amino]-pyridine-2-carboxylic acid methyl ester], the pest or weed control at 1000 g/ha in assay [1] was 10%; in assay [2], 0%; in assay [3], 10%; in [4] it was 0%; in assay [5] it was 10%; in [6], 10%. For the same compound, the pest or weed control at 1000 g/ha in [7] turned out to be 0%; in [8], 20%; in assay [9], 0%; in [10], 40%; in assay [11], 0%; in [12] it was 60%.

As for `C=Cc1c(NCC2CC2)cc(Cl)nc1C(=O)OC` [Compound 1-12, 6-chloro-4-cyclopropylmethylamino-3-ethenyl-pyridine-2-carboxylic acid methyl ester], the pest or weed control at 1000 g/ha is 80% in assay [1]; 100% in [2]; 90% in assay [3]; 90% in assay [4]; 90% in assay [5]; 100% in assay [6]. The pest or weed control at 1000 g/ha in assay [7] was 70%; in assay [8] it was 100%; in assay [9], 80%; in assay [10], 70%; in assay [11] it was 90%; in assay [12], 90%.

In the case of `COC(=O)c1nc(Cl)cc(NCc2ccccc2)c1Cl` [Compound 2-2, 3,6-Dichloro-4-phenylmethyl-amino-pyridine-2-carboxylic acid methyl ester], the pest or weed control at 1000 g/ha in assay [1] turned out to be 60%; in assay [2], 100%; in assay [3], 30%; in assay [4], 90%; in assay [5] it was 80%; in [6] it was 100%. For the same compound, the pest or weed control at 1000 g/ha in assay [7] was found to be 50%; in [8], 100%; in assay [9], 60%; in assay [10] it was 70%; in assay [11], 80%; in assay [12], 100%.

With `COC(=O)c1nc(-c2ccc(Cl)c(OC)c2F)cc(NCc2ccco2)c1Cl` [Compound 26-164, 3-chloro-6-(4-chloro-2-fluoro-3-methoxy-phenyl)-4-[(furan-2-ylmethyl)-amino]-pyridine-2-carboxylic acid methyl ester], the pest or weed control at 1000 g/ha in assay [1] stood at 50%; in assay [2], 100%; in assay [3] it was 90%; in assay [4] it was 100%; in assay [5] it was 90%; in assay [6], 100%. Besides, the pest or weed control at 1000 g/ha came to 70% in assay [7]; 100% in [8]; 70% in assay [9]; 90% in [10]; 90% in [11]; 100% in [12].

Consider `COC(=O)c1nc(Cl)cc(NCc2ccccn2)c1Cl` [Compound 31-2, 3,6-Dichloro-4-(pyridin-2-ylmethylamino)-pyridine-2-carboxylic acid methyl ester], for which the pest or weed control at 1000 g/ha stood at 70% in assay [1]; 100% in assay [2]; 60% in assay [3]; 100% in assay [4]; 80% in [5]; 100% in assay [6]. The pest or weed control at 1000 g/ha in [7] came to 50%; in [8], 100%; in assay [9] it was 20%; in assay [10], 80%; in [11], 80%; in [12] it was 100%.
